Consider three compounds from patent US20170095505A1, “COMBINATION OF XENON AND AN ANTIOXIDANT TO CONTROL A PARKINSON'S DISEASE-TYPE NEURODEGENERATIVE DISEASE” (L'Air Liquide, Société Anonyme pour I'Etude et …, priority 2014, published 2017).

The experiment has as its system TH-positive (dopaminergic) neurons of mesencephalon cultures. Briefly: Survival of TH-positive dopaminergic neurons in rat mesencephalon primary cultures, degeneration by chronic treatment with PDC, under controlled gaseous atmosphere. The note with it: for Survival of TH-positive neurons: D13-D16, analyzed D16; for survival rate of dopaminergic neuronal cells: % of cultures not treated with PDC under 75% nitrogen. Also on record: key to Survival of TH-positive neurons: a favorable response, synonymous with a decrease in the level of neuronal cell death in the presence of the treatments of interest, is denoted by a “+”, “++”, or “+++” sign (+++ = level of reference); a favorable response, synonymous with a decrease in the level of neuronal cell death in the presence of the treatments of interest, is denoted by a “+”, “++”, or “+++” sign; a favorable response, synonymous with a decrease in the level of neuronal cell death in the presence of the treatments of interest, is denoted by a “+”, “++”, or “+++” sign; an unfavorable response is represented by a “−” sign, synonymous with an increase in the neuronal death. Type of experiment: cell-based. How it is done:
Cultures are prepared from mesencephalon of rat embryos, taken from gestating female Wistar rats on day 15.5 of gestation. The method for obtaining the mesencephalon cultures comprises obtaining a homogeneous cell suspension via mechanical dissociation, i.e. non-enzymatic dissociation, of the embryonic tissue, using Leibovitz L15 medium (Sigma Aldrich). Aliquots of this suspension are added to Nunc 48-well plates, which were precoated with a thin layer of polyethyleneimine (1 mg/ml, borate buffer, pH 8.3) so as to enable the adhesion of the neuronal cells (cf. Toulorge et al., Faseb J, 2011). The seeding density is between approximately 80 000 and 100 000 cells/cm^2. The mesencephalon cultures are maintained in neurobasal culture medium, containing a B27 cocktail without antioxidant, N2 supplement, glutamine (2 mM) and a penicillin/streptomycin cocktail ([…] al., J Neurochem, 2008). The medium and supplements thereof are available from Life Technologies. Up to the time when the effects of the gases of interest are evaluated, the cultures are placed in a conventional enclosure thermostatically controlled at 37° C., in which the CO2 is maintained at 5% by volume and wherein the atmosphere is saturated with water. No change of culture medium is carried out throughout the culture period. Pharmacological Treatments of the Cultures p The degenerative process is triggered by applying a glutamate reuptake system blocker, L-trans-pyrrolidine-2,4-dicarboxylic acid or PDC (Zuiderwijk et al., Europ J Pharmacol, 1994). The antioxidant, namely Trolox, is added to the cultures before the application of PDC. Once the pharmacological treatments have been carried out, the multiwell plates containing the cells in culture and the plate used to humidify the internal compartment of the chamber are placed on a metal base which receives the Plexiglas incubation chamber. The two parts (base and Plexiglas chamber) are butt-joined together by screwing. A gas mixture of interest comprising (% by volume): 20% of O2, 5% of CO2 and 75% of the gas tested is then injected into the incubation chamber, with open inlet and outlet valves, while at the same time controlling the output flow rate by means of a flow meter. The gases tested are nitrogen and xenon. The reference output flow rate, set for air at 10 liters/min, is corrected according to the density of the mixture used. When the CO2 measurement reaches 5% at the outlet, the injection of the gas mixture is stopped and the chamber is made totally airtight by closing the inlet and outlet valves. The exposure chamber is then placed in an enclosure at 37° C. throughout the experimental protocol. After breaking the […] by opening the inlet and outlet valves and unscrewing the chamber from its base, the cultures are fixed with 4% formaldehyde in PBS for 12 min and then incubated at 4° C. with an anti-TH monoclonal antibody (dilution 1/5000) for 2 days. […] The image acquisition is carried out with an infrared imager of Odyssey type (Li-COR Biosciences) and the quantification of the neurons is carried out by means of the ICY software (Institut Pasteur). The results recorded on the figure appended hereto illustrate the synergistic protective effects of xenon and of Trolox in a cell model mimicking chronic Parkinsonian degeneration. […] The cultures are then recovered for fixing and analysis. The neuronal survival is quantified under the various experimental conditions tested, by counting the number of cell bodies immunopositive for the dopaminergic marker TH. The results are expressed in % (±SEM) of the mean values of the cultures not treated with PDC, maintained under 75% of nitrogen (control condition).

In the case of `O=C(O)[C@H]1CN[C@H](C(=O)O)C1` (relative stereo) [PDC, L-trans-pyrrolidine-2,4-dicarboxylic acid], where the note is “PDC 100 μM, 20% O2 + 5% CO2 + 75% N2”, the “Survival of TH-positive neurons” value is “−”. Further, the “survival rate of dopaminergic neuronal cells” value (PDC 100 μM, atmosphere containing 75 vol % nitrogen) came out at 25.4%.

In the case of `Cc1c(C)c2c(c(C)c1O)CCC(C)(C(=O)O)O2` (stereo not drawn) [Trolox, 6-hydroxy-2,5,7,8-tetramethylchromane-2-carboxylic acid], the “Survival of TH-positive neurons” value (PDC 100 μM + Trolox 0.1 μM, 75% N2) was “−”; the “Survival of TH-positive neurons” value (PDC 100 μM + Trolox 0.3 μM, 75% N2) was “−”; the “Survival of TH-positive neurons” value (PDC 100 μM + Trolox 1 μM, 75% N2) is on record as “+”; the “Survival of TH-positive neurons” value (PDC 100 μM + Trolox 10 μM, 75% N2) is given as “++”. Besides, the “Trolox concentration from which a significant protective effect is produced” value (PDC 100 μM, 75% nitrogen, p<0.05 vs cultures exposed only to PDC in the same atmosphere) is no less than 1 µM. The “effect of Trolox applied alone on neuronal survival” value (PDC 100 μM, Trolox 0.1-0.3 μM, atmosphere containing 75% nitrogen) was “no significant effect”.

In the case of `[Xe]` [Xe, xenon], the “Survival of TH-positive neurons” value is “++” (PDC 100 μM, 20% O2 + 5% CO2 + 75% Xe) and “+++” (no PDC (Control group II), 20% O2 + 5% CO2 + 75% Xe). Besides, the “survival of dopaminergic neurons treated with PDC, 75% xenon compared with 75% nitrogen” value (PDC 100 μM, Trolox present or absent, p<0.05 vs corresponding cultures under 75% nitrogen) is reported as “increase in the survival”. The “survival rate of dopaminergic neuronal cells” value (PDC 100 μM, nitrogen replaced with xenon (75%)) was 57.7%.
